Laboratory results: patent US20260125359A1, “HETEROARYL COMPOUNDS AS MULTI-TARGET PROTEIN KINASE INHIBITORS” (FUJIAN HAIXI PHARMACEUTICALS CO., LTD., priority 2023, published 2026)

What was measured:
Assay type in all cases: biochemical
KDR (VEGFR2) = KDR (VEGFR2) (Homo sapiens, UniProt P35968); assay: KDR (VEGFR2) in vitro kinase activity assay (HTRF kinEASE TK); conditions: for inhibition at 0.01 µM: compound 10 nM, read-out: VEGFR2 inhibition rate, 10 nM; for inhibition at 0.1 µM: compound 100 nM, read-out: VEGFR2 inhibition rate, 100 nM
Description: (§1) CSF-1R, PDGFR-α, KDR (VEGFR2) and KIT in vitro Kinase Activity Assay:
(§2) • ENVISION (Perkinelmer, 2104) • White 384-well MicroPlate (Cat #264706, Nunc) • HTRF kinEASE TK kit main reagents (Cat #62TKOPEC, Cisbio) • TK-biotin substrate • Streptavidin-XL665 • TK Antibody-Cryptate • 5× Enzymatic buffer (5×KB) • Staphylococcal enterotoxin B (SEB) • HTRF Detection buffer • CSF-1R (Cat #PV3249, Invitrogen) • PDGFR-α (Cat #PV3811, Invitrogen) • KDR (Cat #PV3660, Invitrogen) • KIT (Cat #08-156, Carna) • ATP 10 mM (Cat #PV3227, Invitrogen) • DTT 1 M (Cat #D5545, Sigma) • MgCl2 1 M (Cat #M8266, Sigma) • MnCl2 1 M (Cat #244589, Sigma)
(§3) Dilute Substrate-TK and ATP to 5× of the reaction concentration using 1× Kinase Buffer.
(§4) Prepare the 5× enzyme working solution using 1× Kinase Buffer.
(§5) Prepare the 4×Sa-XL665 working solution using Detection Buffer.
(§6) Dilute TK-Ab-Cryptate 100 times using Detection Buffer to prepare the working solution.
(§7) After all reagents were prepared according to the methods described above, except for the enzyme, they were equilibrated to room temperature before starting the sample addition. • a) First, 2.5% DMSO solutions were prepared separately using the pre-prepared 1× kinase buffer (DMSO concentrations that were too high could affect the reaction, so the final concentration of DMSO was controlled at 1%). Then, the corresponding 2.5% DMSO solution for the enzyme was used to dilute the test compounds. Compounds were screened with two concentrations of 100 nM and 10 nM. Except for the control wells, 4 μL of the diluted test compound solution was added to the reaction wells, and 4 μL of the pre-prepared 2.5% DMSO solution was added to the control wells. • b) 2 μL of the pre-prepared TK-biotin substrate solution at the corresponding concentration for the kinase was added to all reaction wells. • c) 2 μL of the pre-prepared enzyme solution at the corresponding concentration was added to all reaction wells except the negative control wells. For the negative control wells, 2 μL of 1× kinase buffer corresponding to the enzyme was added to make up the volume. The plate was sealed with sealing film, mixed gently, and incubated at room temperature for 10 min to allow the compounds to fully interact with the enzyme. • d) 2 μL of the ATP solution at the corresponding concentration for the enzyme was added to all reaction wells to initiate the kinase reaction. ATP concentrations and reaction times for enzyme screening are shown in Table 26 • e) Five minutes before the end of the kinase reaction, the detection solution was prepared. The detection buffer from the kit was used to prepare detection solutions for Streptavidin-XL665 and TK antibody europium cryptate (1:100) at the appropriate concentrations for the two enzymes. • f) After the kinase reaction was completed, 5 μL of the diluted Streptavidin-XL665 solution was added to all reaction wells. After mixing, the diluted TK antibody europium cryptate detection solution was immediately added. • g) The plate was sealed and mixed, incubated at room temperature for 1 hour, and the fluorescence signal was detected using the ENVISION (PerkinElmer) instrument (excitation at 320 nm, emission at 665 nm and 615 nm). The inhibition rate for each well was calculated based on the full-activity control wells and background signal wells, and the average value of the replicates was taken.

KIT = KIT (Homo sapiens, UniProt P10721); assay: KIT in vitro kinase activity assay (HTRF kinEASE TK); conditions: for inhibition at 0.01 µM: compound 10 nM, read-out: KIT inhibition rate, 10 nM; for inhibition at 0.1 µM: compound 100 nM, read-out: KIT inhibition rate, 100 nM
Description: as §1, §2, §3, §4, §5, §6, §7

CSF-1R = CSF-1R (Homo sapiens, UniProt P07333); assay: CSF-1R in vitro kinase activity assay (HTRF kinEASE TK); conditions: for inhibition at 0.01 µM: compound 10 nM, read-out: CSF-1R inhibition rate, 10 nM; for inhibition at 0.1 µM: compound 100 nM, read-out: CSF-1R inhibition rate, 100 nM
Description: as §1, §2, §3, §4, §5, §6, §7

Sequence of KIT (P10721 26-976): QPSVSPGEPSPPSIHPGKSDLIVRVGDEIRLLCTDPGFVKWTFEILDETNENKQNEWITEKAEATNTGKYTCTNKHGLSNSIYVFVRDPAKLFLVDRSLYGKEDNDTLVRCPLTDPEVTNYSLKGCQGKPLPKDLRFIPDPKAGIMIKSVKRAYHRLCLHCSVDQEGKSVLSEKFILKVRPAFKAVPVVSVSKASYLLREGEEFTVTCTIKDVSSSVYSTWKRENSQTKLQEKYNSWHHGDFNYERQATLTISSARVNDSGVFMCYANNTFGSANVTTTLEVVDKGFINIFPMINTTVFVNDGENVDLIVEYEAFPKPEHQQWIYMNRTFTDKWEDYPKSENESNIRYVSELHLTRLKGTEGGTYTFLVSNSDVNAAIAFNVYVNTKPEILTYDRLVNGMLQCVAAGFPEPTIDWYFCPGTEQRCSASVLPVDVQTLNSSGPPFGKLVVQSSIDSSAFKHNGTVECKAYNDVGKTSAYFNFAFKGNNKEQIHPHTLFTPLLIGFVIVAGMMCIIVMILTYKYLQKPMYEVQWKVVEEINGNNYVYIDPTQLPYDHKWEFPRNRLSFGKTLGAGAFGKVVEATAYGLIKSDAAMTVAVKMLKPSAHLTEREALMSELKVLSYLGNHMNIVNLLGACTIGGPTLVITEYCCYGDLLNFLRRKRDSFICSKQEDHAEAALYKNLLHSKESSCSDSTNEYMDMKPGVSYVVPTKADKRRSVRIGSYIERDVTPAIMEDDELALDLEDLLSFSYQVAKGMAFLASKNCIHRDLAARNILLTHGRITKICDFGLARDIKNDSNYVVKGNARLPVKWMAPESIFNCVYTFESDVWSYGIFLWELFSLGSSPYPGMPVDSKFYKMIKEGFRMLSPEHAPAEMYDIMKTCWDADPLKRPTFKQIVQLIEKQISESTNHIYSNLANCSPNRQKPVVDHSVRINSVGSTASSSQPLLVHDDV
Sequence of KDR (VEGFR2) (P35968 20-1356): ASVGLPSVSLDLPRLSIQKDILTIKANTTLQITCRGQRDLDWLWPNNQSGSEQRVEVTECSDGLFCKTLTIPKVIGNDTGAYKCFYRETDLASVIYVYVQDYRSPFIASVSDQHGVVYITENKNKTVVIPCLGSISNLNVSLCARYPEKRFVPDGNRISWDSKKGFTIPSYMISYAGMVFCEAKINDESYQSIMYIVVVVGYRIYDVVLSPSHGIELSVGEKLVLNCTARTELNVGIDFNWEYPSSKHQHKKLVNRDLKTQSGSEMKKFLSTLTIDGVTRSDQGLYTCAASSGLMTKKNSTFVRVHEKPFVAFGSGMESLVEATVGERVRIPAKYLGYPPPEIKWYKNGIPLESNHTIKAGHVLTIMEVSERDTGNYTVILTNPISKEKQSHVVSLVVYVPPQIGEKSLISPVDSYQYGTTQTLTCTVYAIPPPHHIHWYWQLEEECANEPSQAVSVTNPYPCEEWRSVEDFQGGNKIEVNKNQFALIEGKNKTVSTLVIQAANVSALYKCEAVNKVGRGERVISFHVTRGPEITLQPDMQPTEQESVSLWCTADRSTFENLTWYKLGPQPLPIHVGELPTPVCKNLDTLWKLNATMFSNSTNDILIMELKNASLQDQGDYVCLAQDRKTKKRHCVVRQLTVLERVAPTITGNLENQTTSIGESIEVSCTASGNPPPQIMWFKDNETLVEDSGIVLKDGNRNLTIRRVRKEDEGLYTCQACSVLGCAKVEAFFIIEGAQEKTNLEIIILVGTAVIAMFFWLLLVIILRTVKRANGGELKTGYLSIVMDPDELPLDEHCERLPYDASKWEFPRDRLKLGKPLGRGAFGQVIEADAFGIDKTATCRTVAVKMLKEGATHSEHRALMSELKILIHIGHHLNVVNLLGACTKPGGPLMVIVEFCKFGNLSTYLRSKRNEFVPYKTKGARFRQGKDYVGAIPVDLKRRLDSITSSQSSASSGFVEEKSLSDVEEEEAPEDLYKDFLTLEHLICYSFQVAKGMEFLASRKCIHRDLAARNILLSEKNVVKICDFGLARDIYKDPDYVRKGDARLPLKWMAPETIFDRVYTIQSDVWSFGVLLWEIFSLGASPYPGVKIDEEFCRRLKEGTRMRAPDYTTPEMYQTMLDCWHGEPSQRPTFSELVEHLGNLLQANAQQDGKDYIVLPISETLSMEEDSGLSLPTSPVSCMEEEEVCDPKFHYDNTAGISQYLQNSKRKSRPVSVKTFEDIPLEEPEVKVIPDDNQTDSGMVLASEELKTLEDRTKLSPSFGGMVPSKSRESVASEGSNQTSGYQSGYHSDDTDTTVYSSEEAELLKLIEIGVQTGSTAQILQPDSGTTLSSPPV
Sequence of CSF-1R (P07333 20-972): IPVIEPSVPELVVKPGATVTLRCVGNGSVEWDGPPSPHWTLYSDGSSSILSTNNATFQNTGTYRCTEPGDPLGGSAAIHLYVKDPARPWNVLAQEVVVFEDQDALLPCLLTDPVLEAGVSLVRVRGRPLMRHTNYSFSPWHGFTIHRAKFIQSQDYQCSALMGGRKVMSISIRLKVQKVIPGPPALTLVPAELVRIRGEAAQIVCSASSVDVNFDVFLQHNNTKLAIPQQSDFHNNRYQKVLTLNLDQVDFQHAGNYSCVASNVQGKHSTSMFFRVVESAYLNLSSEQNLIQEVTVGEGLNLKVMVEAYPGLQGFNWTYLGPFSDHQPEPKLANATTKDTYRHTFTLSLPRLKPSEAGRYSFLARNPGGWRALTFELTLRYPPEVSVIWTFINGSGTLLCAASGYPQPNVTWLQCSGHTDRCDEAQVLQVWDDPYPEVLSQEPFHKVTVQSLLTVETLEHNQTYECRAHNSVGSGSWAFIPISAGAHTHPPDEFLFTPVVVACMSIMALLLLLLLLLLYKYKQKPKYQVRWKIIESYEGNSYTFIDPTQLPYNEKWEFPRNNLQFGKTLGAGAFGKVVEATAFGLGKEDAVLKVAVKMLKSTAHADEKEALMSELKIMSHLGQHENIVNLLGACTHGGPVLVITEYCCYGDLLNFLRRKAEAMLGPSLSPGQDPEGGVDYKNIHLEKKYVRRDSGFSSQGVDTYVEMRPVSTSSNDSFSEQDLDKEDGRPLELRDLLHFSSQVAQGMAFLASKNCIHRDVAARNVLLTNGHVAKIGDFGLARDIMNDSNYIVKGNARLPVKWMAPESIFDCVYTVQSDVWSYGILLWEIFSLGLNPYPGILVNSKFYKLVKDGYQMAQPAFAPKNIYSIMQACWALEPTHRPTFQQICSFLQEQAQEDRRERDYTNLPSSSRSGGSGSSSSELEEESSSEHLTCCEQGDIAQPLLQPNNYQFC

Work on Cn1ncc2ncc(N[C@H]3CCc4c(C(=O)Nc5cccc(C6CC6)c5)cccc43)cc21 [Compound 73, (S)—N-(3-cyclopropylphenyl)-1-((1-methyl-1H-pyrazolo[4,3-b]pyridin-6-yl)amino)-2,3-dihydro-1H-indene-4-carboxamide] yielded an inhibition at 0.01 µM (KDR (VEGFR2)) of 68.3%, an inhibition at 0.1 µM (KDR (VEGFR2)) of 100% and an inhibition at 0.01 µM (KIT) of 59.1%. The inhibition at 0.1 µM (KIT) was 99.7%, the inhibition at 0.01 µM (CSF-1R) was 70.2% and the inhibition at 0.1 µM (CSF-1R) was 101%.
In the case of Cn1cc2ncc(N[C@H]3CCc4c(C(=O)Nc5nc(C6CC6)cs5)cccc43)cc2n1 [Compound 74h, (S)—N-(4-cyclopropylthiazol-2-yl)-1-((2-methyl-2H-pyrazolo[4,3-b]pyridin-6-yl)amino)-2,3-dihydro-1H-indene-4-carboxamide], the inhibition at 0.01 µM (KDR (VEGFR2)) is reported as 60.3%, the inhibition at 0.1 µM (KDR (VEGFR2)) is reported as 94.9% and the inhibition at 0.01 µM (KIT) is reported as 35.3%. The inhibition at 0.1 µM (KIT) was 94.9%, the inhibition at 0.01 µM (CSF-1R) was 72.6% and the inhibition at 0.1 µM (CSF-1R) was 96.3%.
Cn1ncc2ncc(O[C@H]3CCc4c(C(=O)Nc5cncc(Cl)c5)cccc43)cc21 [Compound 76ac, (S)—N-(5-chloropyridin-3-yl)-1-((1-methyl-1H-pyrazolo[4,3-b]pyridin-6-yl)oxy)-2,3-dihydro-1H-indene-4-carboxamide] showed an inhibition at 0.01 µM (KDR (VEGFR2)) of 85.4%, an inhibition at 0.1 µM (KDR (VEGFR2)) of 98.3% and an inhibition at 0.01 µM (KIT) of 12.6%. The inhibition at 0.1 µM (KIT) was 54%, the inhibition at 0.01 µM (CSF-1R) was 71.9% and the inhibition at 0.1 µM (CSF-1R) was 97.3%.
Work on Cn1cc2ncc(O[C@H]3CCc4c(C(=O)Nc5cncc(Cl)c5)cccc43)cc2n1 [Compound 76ai] yielded an inhibition at 0.01 µM (KDR (VEGFR2)) of 96.5%, an inhibition at 0.1 µM (KDR (VEGFR2)) of 102% and an inhibition at 0.01 µM (KIT) of 39.6%. The inhibition at 0.1 µM (KIT) was 79.1%, the inhibition at 0.01 µM (CSF-1R) was 78.2% and the inhibition at 0.1 µM (CSF-1R) was 99.1%.
Cn1cc2ncc(O[C@H]3CCc4c(C(=O)Nc5nn(C)c6ccccc56)cccc43)cc2n1 [Compound 76al] was tested, and the inhibition at 0.01 µM (KDR (VEGFR2)) was 99.1%, the inhibition at 0.1 µM (KDR (VEGFR2)) was 95.6% and the inhibition at 0.01 µM (KIT) was 91.2%. The inhibition at 0.1 µM (KIT) was 95.9%, the inhibition at 0.01 µM (CSF-1R) was 105% and the inhibition at 0.1 µM (CSF-1R) was 103%.
Cn1cc2ncc(O[C@H]3CCc4c(C(=O)Nc5nn(C)c6cccc(F)c56)cccc43)cc2n1 [Compound 76aw] showed an inhibition at 0.01 µM (KDR (VEGFR2)) of 89.9%, an inhibition at 0.1 µM (KDR (VEGFR2)) of 101% and an inhibition at 0.01 µM (KIT) of 56%. For the same molecule, the inhibition at 0.1 µM (KIT) was 92.4%, the inhibition at 0.01 µM (CSF-1R) was 65.1% and the inhibition at 0.1 µM (CSF-1R) was 99.1%.
For Cc1cccc(NC(=O)c2cccc3c2CC[C@@H]3Oc2cnc3cn(C)nc3c2)n1 [Compound 76bd], the inhibition at 0.01 µM (KDR (VEGFR2)) was 93.2%, the inhibition at 0.1 µM (KDR (VEGFR2)) was 97% and the inhibition at 0.01 µM (KIT) was 5.6%. The inhibition at 0.1 µM (KIT) was 31.4%, the inhibition at 0.01 µM (CSF-1R) was 15.3% and the inhibition at 0.1 µM (CSF-1R) was 94.1%.
CN(c1cnc2cn(C)nc2c1)[C@H]1CCc2c(C(=O)Nc3cncc(Cl)c3)cccc21 [Compound 80k] was tested, and the inhibition at 0.01 µM (KDR (VEGFR2)) was 43%, the inhibition at 0.1 µM (KDR (VEGFR2)) was 91.9% and the inhibition at 0.01 µM (KIT) was 22%. For the same molecule, the inhibition at 0.1 µM (KIT) was 47.8%, the inhibition at 0.01 µM (CSF-1R) was 73.7% and the inhibition at 0.1 µM (CSF-1R) was 96.5%.
With CN(c1cnc2cn(C)nc2c1)[C@H]1CCc2c(C(=O)Nc3nn(C)c4ccccc34)cccc21 [Compound 80l] the inhibition at 0.01 µM (KDR (VEGFR2)) was 95%, the inhibition at 0.1 µM (KDR (VEGFR2)) was 100% and the inhibition at 0.01 µM (KIT) was 69.9%. It also gave an inhibition at 0.1 µM (KIT) of 104%, an inhibition at 0.01 µM (CSF-1R) of 24.3% and an inhibition at 0.1 µM (CSF-1R) of 98.4%.
For Cn1ncc2ncc(N[C@H]3CCc4c(Nc5cc(C(C)(C)C)on5)cccc43)nc21 [Compound 86, (S)—N^4-(5-(tert-butyl)isoxazol-3-yl)-N1-(1-methyl-1H-pyrazolo[3,4-b]pyrazin-6-yl)-2,3-dihydro-1H-indene-1,4-diamine], the inhibition at 0.01 µM (KDR (VEGFR2)) was 12.9%, the inhibition at 0.1 µM (KDR (VEGFR2)) was 70.1% and the inhibition at 0.01 µM (KIT) was 23.4%. It also gave an inhibition at 0.1 µM (KIT) of 82%, an inhibition at 0.01 µM (CSF-1R) of 46.6% and an inhibition at 0.1 µM (CSF-1R) of 95.9%.
